We go through 18 compounds from patent US12065436B2, “Cardiac sarcomere inhibitors” (Cytokinetics, Inc., priority 2018, dated 2024).

The test system of test [1] is rat cardiac contractility (left ventricle fractional shortening). Put plainly: Echocardiography of acute effect on rat cardiac contractility, continuous IV infusion. To be noted: plasma concentration at which fractional shortening is 50% of pre-dose baseline, estimated, read-out: IC50 (Mean ± S.D.). The class given is in vivo, Sprague Dawley rats. The protocol:
(§1) Assessment of in vivo cardiac function by echocardiography was performed in male Sprague Dawley rats under isoflurane (1-3%) anesthesia. 2-D M-mode images of the left ventricle were acquired in the parasternal long-axis view before, during, and after administration of compounds by continuous IV infusion or oral gavage. In vivo fractional shortening was determined by M-mode image analysis with the following calculation: ((End diastolic diameter−end systolic diameter)/end diastolic diameter×100). For continuous IV infusion experiments, three pre-dose baseline M-mode images were taken at 1 minute intervals prior to infusion of compound. Compounds were formulated in 50% Propylene Glycol (PG): 16% Captisol: 10% dimethylacetamide (DMA) and delivered via a jugular vein catheter at the rate of 1 mL/kg/h. During infusion, M-mode images were taken at 5 minute intervals. The infusion stopped when fractional shortening reached up to a 60% reduction from baseline. Blood samples were taken to determine the plasma concentration of the compounds. Data was reported as an estimated IC50 value, which is the concentration at which fractional shortening is 50% of the pre-dose baseline contractility.

Test [2] has as its target bovine cardiac myofibrils (full-length cardiac myosin ATPase in the native sarcomere) (Bos taurus (Bovine), UniProt Q9BE39). The experiment in a line: Skinned bovine cardiac myofibril ATPase assay (PK/LDH-coupled). The class given is biochemical. To be noted: Ca2+ activating to 75% of maximal rate; for CDMF75 IC15: concentration giving 15% inhibition; for IC50: read-out: CDMF75 IC50. A digest of the protocol: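 Triton-skinned bovine left-ventricle myofibrils (1 mg/mL) in PM 12 buffer (12 mM PIPES, 2 mM MgCl2, pH 6.8) with 50 μM ATP, 0.6 mM EGTA and CaCl2 set for 50% or 75% activation. Steady-state ATPase inhibition followed by PK/LDH-coupled NADH oxidation at 340 nm.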

Test [3] relates to rat cardiac contractility (left ventricle fractional shortening). The experiment in a line: Echocardiography of acute effect on rat cardiac contractility, oral gavage. The class given is in vivo, Sprague Dawley rats. To be noted: for inhibition in vivo at 6 mg/kg / IC50 / inhibition in vivo at 8 mg/kg: Rattus norvegicus; for inhibition in vivo at 6 mg/kg / inhibition in vivo at 8 mg/kg: oral gavage; for IC50 / IC10: oral dosing, estimated; for IC50: plasma concentration at which fractional shortening is 50% of pre-dose baseline; for IC10: plasma concentration at which. The protocol: as §1
For oral dosing studies, three pre-dose baseline M-Mode images were taken at 1 minute intervals prior to compound administration. Compounds were formulated in a 0.5% hydroxypropyl methylcellulose 2910 (HPMC 2910): 0.1% Tween 80 suspension and delivered as a single dose (5 mL/kg) by oral gavage. Rats were lightly anesthetized for M-Mode echocardiography measurements at select time points over a 24 hour period. Different dose levels were evaluated for each compound. The compound effect on cardiac fractional shortening at the highest dose evaluated is presented in Table D as a percent reduction of baseline fractional shortening (=100%).
Concurrent with echocardiography measurements, blood samples were taken to determine the corresponding compound plasma concentration.

[4] abbreviates: 1 h, 1-2 h post dose, read-out: FS (% reduction from baseline) at 1-2 h post dose (Mean ± S.D.).
[5] abbreviates: 4 h post dose, read-out: FS (% reduction from baseline) at 4 h post dose (Mean ± S.D.).

Where two headings read alike, the source gives them in different places.

Sequence of bovine cardiac myofibrils (full-length cardiac myosin ATPase in the native sarcomere) (Q9BE39 whole entry): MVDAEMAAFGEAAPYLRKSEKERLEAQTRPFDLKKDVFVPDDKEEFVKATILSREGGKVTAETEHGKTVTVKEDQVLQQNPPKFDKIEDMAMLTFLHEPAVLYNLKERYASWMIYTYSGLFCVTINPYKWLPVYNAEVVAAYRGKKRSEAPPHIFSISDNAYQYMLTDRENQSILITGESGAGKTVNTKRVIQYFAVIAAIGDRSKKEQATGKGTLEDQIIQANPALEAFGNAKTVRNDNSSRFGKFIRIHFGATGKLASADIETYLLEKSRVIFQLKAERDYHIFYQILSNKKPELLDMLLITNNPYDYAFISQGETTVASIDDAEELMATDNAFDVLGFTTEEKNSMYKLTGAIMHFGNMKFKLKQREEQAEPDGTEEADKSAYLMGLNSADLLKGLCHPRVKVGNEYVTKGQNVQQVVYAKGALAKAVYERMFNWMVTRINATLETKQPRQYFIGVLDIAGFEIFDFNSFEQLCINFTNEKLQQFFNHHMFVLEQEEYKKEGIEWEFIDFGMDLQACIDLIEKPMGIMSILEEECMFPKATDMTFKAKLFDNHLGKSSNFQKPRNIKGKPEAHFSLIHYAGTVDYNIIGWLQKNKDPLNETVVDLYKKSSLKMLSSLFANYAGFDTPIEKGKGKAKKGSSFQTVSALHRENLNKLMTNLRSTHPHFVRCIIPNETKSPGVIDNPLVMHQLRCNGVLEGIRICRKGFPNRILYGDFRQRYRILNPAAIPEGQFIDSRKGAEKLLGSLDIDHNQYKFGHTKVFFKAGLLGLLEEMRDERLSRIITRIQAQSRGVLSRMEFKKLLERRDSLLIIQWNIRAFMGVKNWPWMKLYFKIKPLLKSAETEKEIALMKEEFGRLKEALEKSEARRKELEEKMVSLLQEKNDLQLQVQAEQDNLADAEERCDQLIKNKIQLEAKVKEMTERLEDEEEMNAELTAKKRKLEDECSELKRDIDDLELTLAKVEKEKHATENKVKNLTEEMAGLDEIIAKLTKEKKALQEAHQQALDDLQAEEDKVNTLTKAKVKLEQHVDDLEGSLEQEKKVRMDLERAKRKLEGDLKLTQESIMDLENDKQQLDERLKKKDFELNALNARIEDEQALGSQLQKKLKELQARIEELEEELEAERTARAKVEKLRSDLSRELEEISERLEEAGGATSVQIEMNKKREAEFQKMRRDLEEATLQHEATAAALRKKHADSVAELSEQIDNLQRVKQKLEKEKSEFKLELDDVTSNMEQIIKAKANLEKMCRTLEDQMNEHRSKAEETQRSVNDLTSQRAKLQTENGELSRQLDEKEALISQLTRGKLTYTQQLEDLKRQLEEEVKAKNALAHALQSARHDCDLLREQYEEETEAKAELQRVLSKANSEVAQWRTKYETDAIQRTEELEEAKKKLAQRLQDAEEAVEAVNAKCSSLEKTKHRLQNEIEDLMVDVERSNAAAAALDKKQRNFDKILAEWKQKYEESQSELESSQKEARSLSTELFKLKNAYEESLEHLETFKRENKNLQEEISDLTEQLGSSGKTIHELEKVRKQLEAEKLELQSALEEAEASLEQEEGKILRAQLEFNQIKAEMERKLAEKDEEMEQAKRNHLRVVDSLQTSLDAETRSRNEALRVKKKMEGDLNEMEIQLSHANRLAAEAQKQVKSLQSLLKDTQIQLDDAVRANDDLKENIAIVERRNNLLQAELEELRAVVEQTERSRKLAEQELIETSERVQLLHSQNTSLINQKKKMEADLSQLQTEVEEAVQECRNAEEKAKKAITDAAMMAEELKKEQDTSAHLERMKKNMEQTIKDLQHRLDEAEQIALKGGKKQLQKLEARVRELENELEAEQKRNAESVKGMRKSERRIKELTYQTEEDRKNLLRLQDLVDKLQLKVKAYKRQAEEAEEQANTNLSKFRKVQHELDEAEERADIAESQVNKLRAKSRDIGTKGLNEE
Sequence of bovine cardiac myofibrils (full-length cardiac myosin ATPase in the native sarcomere) (P85100 whole entry partner): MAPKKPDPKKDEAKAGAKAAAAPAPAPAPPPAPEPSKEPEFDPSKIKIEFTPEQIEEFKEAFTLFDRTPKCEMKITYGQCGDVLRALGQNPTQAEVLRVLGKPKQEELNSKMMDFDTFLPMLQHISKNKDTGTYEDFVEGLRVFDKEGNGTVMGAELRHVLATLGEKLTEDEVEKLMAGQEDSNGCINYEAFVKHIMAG
Sequence of bovine cardiac myofibrils (full-length cardiac myosin ATPase in the native sarcomere) (Q3SZE5 whole entry partner): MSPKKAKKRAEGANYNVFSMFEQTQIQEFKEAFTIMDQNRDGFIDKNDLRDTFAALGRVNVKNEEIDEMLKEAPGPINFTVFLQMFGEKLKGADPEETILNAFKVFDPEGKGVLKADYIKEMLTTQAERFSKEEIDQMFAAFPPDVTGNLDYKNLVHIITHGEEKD

Turning to “(R)—N-(7-(5-ethyl-1,2,4-oxadiazol-3-yl)chroman-4-yl)-1-methyl-1H-pyrazole-5-carboxamide [Compound 538]”, in test [1], the IC50 is 10900 ± 370 nM. Moreover, in test [2], the “CDMF75 IC15” value amounted to 700 nM and the IC50 amounted to 3300 nM.
Take `CCc1nc(-c2ccc3c(c2)CC[C@H]3NC(=O)c2ccnc(C)c2)no1` [Compound 387, (R)-N-(5-(5-ethyl-1,2,4-oxadiazol-3-yl)-2,3-dihydro-1H-inden-1-yl)-2-methylisonicotinamide]: the figures for the inhibition in vivo at 6 mg/kg in test [3] (setting [4]) and in test [3] (setting [5]) were 59 ± 24% and 50 ± 18%, respectively. The IC50 is 1600 nM in test [3], 2400 ± 80 nM in test [1] (Rattus norvegicus) and 1300 nM in test [2]. Moreover, the IC10 in test [3] is 400 nM. The “CDMF75 IC15” value in test [2] was determined as 500 nM.
Consider `Cn1cc(C(=O)N[C@@H]2COc3cc(-c4noc(C5CC5)n4)ccc32)cn1` [Compound 236, (S)—N-(6-(5-cyclopropyl-1,2,4-oxadiazol-3-yl)-2,3-dihydrobenzofuran-3-yl)-1-methyl-1H-pyrazole-4-carboxamide], for which the IC50 in test [1] (Rattus norvegicus) was 11400 ± 600 nM; in test [2] it was 1800 nM. In test [2], the “CDMF75 IC15” value stood at 500 nM.
For the compound `Cc1n[nH]cc1C(=O)N[C@@H]1CCc2cc(-c3noc(C4CC4)n3)ccc21` [Compound 420, (R)-N-(5-(5-cyclopropyl-1,2,4-oxadiazol-3-yl)-2,3-dihydro-1H-inden-1-yl)-3-methyl-1H-pyrazole-4-carboxamide], in test [1] (Rattus norvegicus), the IC50 is 2100 ± 50 nM. In test [2], the “CDMF75 IC15” value worked out at 400 nM and the IC50 is 1400 nM.
Take `CCc1nc(-c2ccc3c(c2)CC[C@H]3NC(=O)OC)no1` [Compound 304, methyl (R)-(5-(5-ethyl-1,2,4-oxadiazol-3-yl)-2,3-dihydro-1H-inden-1-yl)carbamate]: the IC50 was 1700 ± 60 nM in test [1] (Rattus norvegicus) and 700 nM in test [2]. In addition, in test [2], the “CDMF75 IC15” value came out at 200 nM.
`Cc1cc(-c2ccc3c(c2)OC[C@H]3NC(=O)c2cn[nH]c2C)no1` [Compound 434, (S)-5-methyl-N-(6-(5-methylisoxazol-3-yl)-2,3-dihydrobenzofuran-3-yl)-1H-pyrazole-4-carboxamide]: in test [1] (Rattus norvegicus), the IC50 is 9300 ± 150 nM. Also, in test [2], the “CDMF75 IC15” value was 700 nM and the IC50 was found to be 2400 nM.
Take `CCc1cc(-c2ccc3c(c2)CC[C@H]3NC(=O)c2nnn(C)n2)no1` [Compound 253, (R)—N-(5-(5-ethylisoxazol-3-yl)-2,3-dihydro-1H-inden-1-yl)-2-methyl-2H-tetrazole-5-carboxamide]: the inhibition in vivo at 6 mg/kg in test [3] (setting [4]) was 56 ± 9%; in test [3] (setting [5]) it was 33 ± 7%. The figures for the IC50 in test [3], in test [1] (Rattus norvegicus) and in test [2] were 1300 nM, 1700 ± 80 nM and 800 nM, respectively. Besides, the IC10 in test [3] is 300 nM. The “CDMF75 IC15” value in test [2] amounted to 300 nM.
Consider `Cn1nccc1C(=O)N[C@@H]1COc2cc(-c3noc(C4CC4)n3)ccc21` [Compound 222, (S)—N-(6-(5-cyclopropyl-1,2,4-oxadiazol-3-yl)-2,3-dihydrobenzofuran-3-yl)-1-methyl-1H-pyrazole-5-carboxamide], for which the figures for the IC50 in test [1] (Rattus norvegicus) and in test [2] were 1100 ± 30 nM and 1000 nM, respectively. Further, in test [2], the “CDMF75 IC15” value is 300 nM.
As for `COCc1nc(-c2ccc3c(c2)CC[C@H]3NC(=O)c2nnn(C)n2)no1` [Compound 144, (R)-N-(5-(5-(methoxymethyl)-1,2,4-oxadiazol-3-yl)-2,3-dihydro-1H-inden-1-yl)-2-methyl-2H-tetrazole-5-carboxamide], in test [1] (Rattus norvegicus), the IC50 was 3400 ± 120 nM. Moreover, in test [2], the “CDMF75 IC15” value turned out to be 600 nM and the IC50 was determined as 2300 nM.
On the same counts, the results for `CCc1cc(-c2ccc3c(c2)OC[C@H]3NC(=O)c2nnn(C)n2)no1` [Compound 365, (S)-N-(6-(5-ethylisoxazol-3-yl)-2,3-dihydrobenzofuran-3-yl)-2-methyl-2H-tetrazole-5-carboxamide] are 4600 ± 170 nM, 600 nM and 2200 nM.
For `CCc1cc(-c2ccc3c(c2)OC[C@H]3NC(=O)c2cn[nH]c2C)no1` [Compound 433, (S)—N-(6-(5-ethylisoxazol-3-yl)-2,3-dihydrobenzofuran-3-yl)-5-methyl-1H-pyrazole-4-carboxamide] the same measures were 4300 ± 110 nM, 300 nM and 900 nM.
`Cc1nc(-c2ccc3c(c2)OC[C@H]3NC(=O)c2cnn(C)c2)no1` [Compound 211, (S)-1-methyl-N-(6-(5-methyl-1,2,4-oxadiazol-3-yl)-2,3-dihydrobenzofuran-3-yl)-1H-pyrazole-4-carboxamide]: the IC50 in test [1] (Rattus norvegicus) was 5400 ± 250 nM. In test [2], the “CDMF75 IC15” value is 800 nM and the IC50 was determined as 2800 nM.
For the compound `Cn1nnc(C(=O)N[C@@H]2CCc3cc(-c4noc(C5CC5)n4)ccc32)n1` [Compound 141, (R)—N-(5-(5-cyclopropyl-1,2,4-oxadiazol-3-yl)-2,3-dihydro-1H-inden-1-yl)-2-methyl-2H-tetrazole-5-carboxamide], in test [1] (Rattus norvegicus), the IC50 was 1500 ± 50 nM. Also, in test [2], the “CDMF75 IC15” value was 300 nM and the IC50 amounted to 900 nM.
As to `CCc1nc(-c2ccc3c(c2)CC[C@H]3NC(=O)c2nnc(C)o2)no1` [Compound 617, (R)-N-(5-(5-ethyl-1,2,4-oxadiazol-3-yl)-2,3-dihydro-1H-inden-1-yl)-5-methyl-1,3,4-oxadiazole-2-carboxamide], the inhibition in vivo at 6 mg/kg in test [3] (setting [4]) was 64 ± 4%. Besides, in test [3], the IC50 was 1200 nM and the IC10 is 300 nM. For the same compound, the inhibition in vivo at 6 mg/kg in test [3] (setting [5]) came out at 37 ± 7%. For the same compound, in test [2], the “CDMF75 IC15” value was determined as 300 nM and the IC50 was 1200 nM.
Take `Cc1nc(-c2ccc3c(c2)OC[C@H]3NC(=O)c2cn(C)nc2C)no1` [Compound 158, (S)-1,3-dimethyl-N-(6-(5-methyl-1,2,4-oxadiazol-3-yl)-2,3-dihydrobenzofuran-3-yl)-1H-pyrazole-4-carboxamide]: the results for the IC50 in test [1] (Rattus norvegicus) and in test [2] were 1100 ± 30 nM and 2800 nM, respectively. Further, in test [2], the “CDMF75 IC15” value came to 700 nM.
Take `Cc1ncc(C(=O)N[C@@H]2CCc3cc(-c4noc(C5CC5)n4)ccc32)o1` [Compound 388, (R)-N-(5-(5-cyclopropyl-1,2,4-oxadiazol-3-yl)-2,3-dihydro-1H-inden-1-yl)-2-methyloxazole-5-carboxamide]: in test [1] (Rattus norvegicus), the IC50 was 5400 ± 100 nM. Besides, in test [2], the “CDMF75 IC15” value was determined as 900 nM and the IC50 worked out at 2800 nM.
Turning to `O=C(N[C@@H]1CCc2cc(-c3noc(C(F)F)n3)ccc21)c1ccnc(CO)c1` [Compound 664, (R)-N-(5-(5-(difluoromethyl)-1,2,4-oxadiazol-3-yl)-2,3-dihydro-1H-inden-1-yl)-2-(hydroxymethyl)isonicotinamide], the inhibition in vivo at 6 mg/kg in test [3] (setting [4]) worked out at 65 ± 4%; in test [3] (setting [5]), 38 ± 5%. Besides, the IC50 in test [3] was 3300 nM; in test [2] it was 1900 nM. Moreover, the IC10 in test [3] was 1200 nM. Further, the “CDMF75 IC15” value in test [2] stood at 500 nM.
Consider `O=C(N[C@@H]1COc2cc(-c3noc(C(F)F)n3)ccc21)c1ccnc(CO)c1` [Compound 709, (S)-N-(6-(5-(difluoromethyl)-1,2,4-oxadiazol-3-yl)-2,3-dihydrobenzofuran-3-yl)-2-(hydroxymethyl)isonicotinamide], for which the inhibition in vivo at 8 mg/kg in test [3] (setting [4]) came out at 68 ± 2%. In test [3], the IC50 is 4300 nM and the IC10 was 1500 nM. Moreover, in test [3] (setting [5]), the inhibition in vivo at 8 mg/kg was found to be 31 ± 3%. In addition, in test [2], the “CDMF75 IC15” value was determined as 600 nM and the IC50 is 2300 nM.

Broadly, the IC50 is the midpoint of a concentration-inhibition curve. One may read the IC10 as the concentration at which the effect reaches the 10% level.
